In patent US9212146B2, “Substituted pyridazinones for the treatment of tumors” (SHANGHAI INSTITUTE OF MATERIA MEDICA, CHINESE ACADEMY OF …, priority 2008, dated 2015):

What was measured:
[1] = test system: H460 lung cancer cells; experiment: SRB assay Example 17, H460; assay type: cell-based; details: Homo sapiens, NCI-H460, 72 h
Method: (§1) Protocol: the antineoplasmic activities in vitro of the compounds were assayed by a Sulforhodamine B (SRB) protocol. Tumor cells were cultivated at 37 under 5% CO2 in a RPMI 1640 medium or a DMEM medium (Gibco) containing 10% fetal bovine serum. Tumor cells were inoculated on a 96-well plate with a concentration of 0.4-1.0×10^4 cells per well according to the cell types. 24 hours later, the target compounds diluted 3 times were added, each compound having at least 9 concentrations. After treated by the compounds for 72 hours, the culture media were discarded, and the cells were fixed by 10% cold trichloroacetic acid, and then stained by Sulforhodamine B (SRB) solution. The uncombined SRB was washed off, and the SRB combined with protein was dissolved with Tris. OD values were recorded at 515 nm on an ELISA Reader, and the cell growth inhibition rate was calculated according to following equation: Inhibition rate=(ODcontrol−ODexperimental)/ODcontrol×100%
(§2) IC50 (50% inhibitory concentration) was calculated by using Logit method based on the inhibition rates at various concentration, and the results are shown in table 4.
(§3) Proliferation of turner cells was assayed by SRB protocol, drug action 72 h.

[2] = test system: A549 lung cancer cells; experiment: SRB assay Example 17, A549; assay type: cell-based; details: Homo sapiens, 72 h
Method: as §1, §2, §3

[3] = test system: human liver cancer cells Bel-7402 transplanted tumor; assay type: in vivo
From the text: Name and lot number: YHHU-744, a white powder, lot No.: No. c001471-106; YHHU-755, a white powder, lot No.: No. c001471-102; YHHU-756, a white powder, lot No.: No. c00147-106; YHHU-759, a white powder, lot No.: No. c001471-102; YHHU-776, a white powder, lot No.: No. c001471-107. Sorafenib was used as a positive control.
Formulation: YHHU-744, YHHU-755, YHHU-756, YHHU-759, YHHU-776 and the positive control were each diluted with 0.1% Tween-80 and distilled water to a desired concentration.
BALB/cA nude mice, 6-7 weeks old, ♀, were purchased from Shanghai SLAC Laboratory Animal Co. LTD. Certificate No.: SCXK (Shanghai) 2007-0005. Habitat: SPF level.
Human liver cancer cells Bel-7402 were inoculated on nude mice subcutaneously. After the tumor grew up to 300-450 mm^3, animals were grouped randomly (d0). The tumor volume was measured 2-3 times each week and the weights of mice were recorded. The tumor volume was calculated according to as the following equation. V=½×a×b^2 wherein, a and b are length and width, respectively. […]

[4] = test system: QGY-7701 liver cancer cells; experiment: SRB assay Example 17, QGY-7701; assay type: cell-based; details: Homo sapiens, QGY7701, 72 h
Method: as §1, §2, §3

[5] = test system: Hep3B liver cancer cells; experiment: SRB assay Example 17, Hep3B; assay type: cell-based; details: Homo sapiens, 72 h
Method: as §1, §2, §3

[6] = test system: HUH-7 liver cancer cells; experiment: SRB assay Example 17, HUH-7; assay type: cell-based; details: Homo sapiens, 72 h
Method: as §1, §2, §3

[7] = test system: human liver cancer cells SMMC-7721 transplanted tumor; experiment: SMMC-7721 transplanted tumor on nude mice; assay type: in vivo; details: intragastrically once a day for 10 days
Method: Experimental procedure: BALB/cA nude mice, 6-7 weeks old, ♀, were purchased from Shanghai SLAC Laboratory Animal Co. LTD. Certificate No.: SCXK (Shanghai) 2007-0005. Habitat: SPF level. The compounds were diluted with 0.5% CMC containing 0.1% Tween-80 to a desired concentration. Human liver cancer cells SMMC-7721 were inoculated on nude mice subcutaneously. After the tumor grew up to 100-200 mm^3, animals were grouped randomly (d0). Mice were consecutively administered with compounds intragastrically once a day for 10 days. The tumor volume was measured 2-3 times each week and the weights of mice were recorded. The tumor volume (V) was calculated according to the following equation: V=½×a×b^2, wherein, a and b are length and width, respectively.

[8] = test system: Chang liver liver cell; experiment: SRB assay Example 17, Chang liver; assay type: cell-based; details: Homo sapiens, 72 h
Method: as §1, §2, §3

[9] = test system: human hepatoma cell line Bel-7402; experiment: SRB proliferation assay, Bel-7402; assay type: cell-based; details: Homo sapiens, Bel-7402, 72 h, BEL-7402 cultivated in vitro, given as bounds, read-out: The Inhibition Activities for Human Liver Cancer Cells BEL-7402 (IC50)
Outline: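 Cells seeded at 0.4-1.0×10^4/well in RPMI 1640 or DMEM with 10% FBS, dosed 24 h later at ≥5 concentrations for 72 h at 37 °C, 5% CO2. TCA-fixed, SRB-stained, OD read at 515 nm; inhibition vs untreated control, IC50 by Logit method.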

[10] = test system: SK-BR-3 breast carcinoma cells; experiment: SRB assay Example 17, SK-BR-3; assay type: cell-based; details: Homo sapiens, 72 h
Method: as §1, §2, §3

[11] = test system: MCF-7 breast carcinoma cells; experiment: SRB assay Example 17, MCF-7; assay type: cell-based; details: Homo sapiens, MCF7, 72 h
Method: as §1, §2, §3

[12] = test system: Bel-7402 liver cancer cells; experiment: SRB assay Example 17, Bel-7402; assay type: cell-based; details: Homo sapiens, drug action 72 h
Method: as §1, §2, §3

[13] = test system: 3AO ovarian cancer cells; experiment: SRB assay Example 17, 3AO; assay type: cell-based; details: Homo sapiens, 72 h
Method: as §1, §2, §3

[14] = test system: HUVEC normal human umbilical vein endothelial cells; experiment: SRB assay Example 17, HUVEC (20% FBS); assay type: cell-based; details: 72 h
Method: as §1, §2, §3

[15] = test system: HL-7702 liver cell; experiment: SRB assay Example 17, HL-7702; assay type: cell-based; details: Homo sapiens, L02, 72 h
Method: as §1, §2, §3

[16] = test system: QGY-7703 liver cancer cells; experiment: SRB assay Example 17, QGY-7703; assay type: cell-based; details: Homo sapiens, 72 h
Method: as §1, §2, §3

[17] = test system: Bel-7404 liver cancer cells; experiment: SRB assay Example 17, Bel-7404; assay type: cell-based; details: Homo sapiens, 72 h
Method: as §1, §2, §3

[18] = test system: CNE nasopharyngeal carcinoma cells; experiment: SRB assay Example 17, CNE; assay type: cell-based; details: Homo sapiens, 72 h
Method: as §1, §2, §3

[19] = test system: SMMC-7721 liver cancer cells; experiment: SRB assay Example 17, SMMC-7721; assay type: cell-based; details: Homo sapiens, 72 h
Method: as §1, §2, §3

[20] = test system: HCCC-9810 liver cancer cells; experiment: SRB assay Example 17, HCCC-9810; assay type: cell-based; details: Homo sapiens, HCCC9810, 72 h
Method: as §1, §2, §3

[21] = test system: QSG-7701 liver cancer cells; experiment: SRB assay Example 17, QSG-7701; assay type: cell-based; details: Homo sapiens, QSG7701, 72 h
Method: as §1, §2, §3

[22] = test system: HepG2 liver cancer cells; experiment: SRB assay Example 17, HepG2; assay type: cell-based; details: Homo sapiens, 72 h
Method: as §1, §2, §3

[23] = test system: SK-HEP-1 liver cancer cells; experiment: SRB assay Example 17, SK-HEP-1; assay type: cell-based; details: Homo sapiens, SK-HEP1, 72 h
Method: as §1, §2, §3

[24] = test system: A2780 ovarian cancer cells; experiment: SRB assay Example 17, A2780; assay type: cell-based; details: Homo sapiens, 72 h
Method: as §1, §2, §3

[25] = test system: HeLa cervical carcinoma cells; experiment: SRB assay Example 17, HeLa; assay type: cell-based; details: Homo sapiens, 72 h
Method: as §1, §2, §3

[26] = 100 mg/kg, PO, QDx11, Bel-7402 on nude mice

With `CN1CCN(c2ccc(-c3ccc(=O)[nH]n3)cc2C(F)(F)F)CC1` [YHHU-756] the IC50 [1] was 12900 nM, the IC50 [2] was 13200 nM and the “Quantity of Animals Whose Tumors Vanished” value ([3]; 100 mg/kg, PO, QDx11, 5 animals per group) was 5. For the same compound, the “Inhibition Rate (%)” value [3, 26] was 100%, the “Tumor Volume (mm^3)” value [3, 26] was 294.6 mm^3 and the “tumors vanished (animals/group)” value ([3]; at the 11th day, intragastrically once a day for 11 days) was 5/5. The recrudescence of tumors ([3]; at the end of the experiment (17th day)) was “no recrudescence was observed”, the “toxicity / survivability of mice” value ([3]; intragastrically once a day for 11 days, nude mice) was “no significant toxicity was observed” and the IC50 [4] was 20 nM. The IC50 [5] was over 10000 nM, the IC50 [6] was over 10000 nM and the “survivability / weight loss of mice bearing cancer” value [7] was “no symptoms such as weight loss was observed”. The “growth of SMMC-7721 transplanted tumor” value ([7]; subcutaneous tumor on nude mice) was “caused part of the tumors vanished”, the IC50 [8] was 20 nM and the IC50 [9] was under 10 nM. It also gave an IC50 [10] of 7100 nM, an IC50 [11] of 12100 nM and an IC50 [12] of 20 nM. For the same compound, the IC50 [13] was 20 nM, the IC50 [14] was 50 nM and the IC50 [15] was 30 nM. It also gave an IC50 [16] of 20 nM, an IC50 [17] of 410 nM and an IC50 [18] of 10 nM. The IC50 [19] was 10 nM, the IC50 [20] was over 10000 nM and the IC50 [21] was 20 nM. The IC50 [22] was over 10000 nM, the IC50 [23] was over 10000 nM and the IC50 [24] was 30 nM. The IC50 [25] was 20 nM.
